Laboratory results published in ChEMBL document CHEMBL3817740, “Recent developments in SAR visualization” (Medchemcomm, 2016).

molecular target: Histamine H4 receptor (Homo sapiens, UniProt Q9H3N8); test: Inhibition of histamine H4 receptor (unknown origin)
Sequence (Q9H3N8 whole entry): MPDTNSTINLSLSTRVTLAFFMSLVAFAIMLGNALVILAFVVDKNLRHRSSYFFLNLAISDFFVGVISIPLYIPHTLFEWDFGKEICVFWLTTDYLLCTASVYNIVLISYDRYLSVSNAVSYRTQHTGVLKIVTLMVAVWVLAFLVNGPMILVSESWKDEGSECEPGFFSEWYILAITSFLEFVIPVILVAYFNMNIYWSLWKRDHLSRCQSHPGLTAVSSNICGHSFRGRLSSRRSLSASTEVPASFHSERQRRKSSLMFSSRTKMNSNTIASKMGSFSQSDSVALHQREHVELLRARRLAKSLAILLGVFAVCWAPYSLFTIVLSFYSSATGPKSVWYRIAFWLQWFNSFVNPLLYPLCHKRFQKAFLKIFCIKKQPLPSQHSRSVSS

Question: `CN[C@H]1CCN(c2nc(N)nc3c2oc2ccc(C(C)(F)F)cc23)C1` was tested. Which Ki did it give?
Answer: The Ki was 1 nM.

Question: `CN[C@H]1CCN(c2nc(N)nc3c2CCC3)C1` was tested. Which Ki did it give?
Answer: Its Ki is 158 nM.

Question: For `CN[C@H]1CCN(c2nc(N)nc3c2oc2ccccc23)C1`, which Ki is on record?
Answer: Its Ki is 3.39 nM.

Question: With `CN[C@H]1CCN(c2nc(N)nc(C)c2C)C1` as the molecule, how does the Ki read?
Answer: Its Ki is 355 nM.
